Where two headings read alike, the source gives them in different places.

From US20250230171A1 (MOMA Therapeutics, Inc., priority 2023, published 2025) come the findings set out here.

For one test, the system named is DLD1 WT cells. Nature of the test: 7-day cell viability assay (CellTiter-Glo), DLD1 parental (WT). The class given is cell-based, human. The note with it: 7-day CellTiter-Glo, n=2. How it is done:
(§1) Cell lines DLD1 WT and DLD1 BRCA2 (−/−) (Horizon Discovery Cat No. HD PAR-008 and HD-105-007) were plated in 384-well culture plates at seeding densities of 100cells/50 ul/well and 200 cells/50 uL/well respectively. The seeding densities are pre-determined from the growth curve kinetics performed to ensure log linear phase of cell growth for these 2 cell lines. These assay plates are then placed in the incubator at 37° C., 5% CO2, relative humidity >90% for a few hours before addition of test compounds. Compounds are dispensed using the Tecan HPD300 or Echo based on the plate map in the appropriate wells of the 384-well plates. The cells are treated with nine-point dose response with 3-fold serial dilutions of test compounds starting at 10 uM top concentration. After addition of the test compounds, the plates are incubated at 37° C., 5% CO2, relative humidity >90% for 7 days. CellTiter-Glo (Promega Cat. No. G7573), ATP detection reagent is prepared according to manufacturer's specifications. Cell assay plates are removed from incubator and bring to room temperature (RT) by letting them sit at bench top for at least 15 min. Using the MultiDrop liquid handler or a multichannel pipette, 35 μL/well of CTG is added and the plates are then placed shakes for 5 seconds, RT.
A general note: ATP-based viability assays read luminescence as a measure of living cells.

For a further test, the system named is DLD1 BRCA2 (−/−) cells. Nature of the test: 7-day cell viability assay (CellTiter-Glo), DLD1 BRCA2 (−/−). The class given is cell-based, human. The note with it: 7-day CellTiter-Glo, n=2, read-out: Viability IC50 (uM) DLD1 BRCA2 null. Here is the method:
as §1

For the compound `COc1cnc(Cl)c(F)c1-c1cc(C)ncc1C(=O)Nc1nc2c(s1)CN(C(=O)c1ccc(C(F)(F)F)nc1OC)C2` [Example 1023, 2′-chloro-3′-fluoro-5′-methoxy-N-(5-(2-methoxy-6-(trifluoromethyl)nicotinoyl)-5,6-dihydro-4H-pyrrolo[3,4-d]thiazol-2-yl)-6-methyl-[4,4′-bipyridine]-3-carboxamide], the IC50 in the test with DLD1 WT cells (Homo sapiens, DLD-1, 168 h) is at least 10 µM; in the test on DLD1 BRCA2 (−/−) cells (Homo sapiens, DLD-1, 168 h), 0.001 to 0.1 µM.
The like results for `COc1cnc(Cl)cc1-c1cc(C)ncc1C(=O)Nc1nc2c(s1)CN(C(=O)c1ccc(C(F)(F)F)c(OC)n1)C2` [Example 962, 2′-chloro-5′-methoxy-N-(5-(6-methoxy-5-(trifluoromethyl)picolinoyl)-5,6-dihydro-4H-pyrrolo[3,4-d]thiazol-2-yl)-6-methyl-[4,4′-bipyridine]-3-carboxamide] were, in that order, 5 to 10 µM and 0.001 to 0.1 µM.
The like results for `COc1cnc(Cl)cc1-c1cc(C)ncc1C(=O)Nc1nc2c(s1)CN(C(=O)c1ncc(OC(F)F)cc1Cl)C2` were, in that order, at least 10 µM and 0.1 to 0.25 µM.
Taken in the same sequence, the figures for `COc1cnc(Cl)cc1-c1cc(C)ncc1C(=O)Nc1nc2c(s1)CN(C(=O)c1cnc(C(F)(F)F)c(OC)n1)C2` [Example 986, 2′-chloro-5′-methoxy-N-(5-(6-methoxy-5-(trifluoromethyl)pyrazine-2-carbonyl)-5,6-dihydro-4H-pyrrolo[3,4-d]thiazol-2-yl)-6-methyl-[4,4′-bipyridine]-3-carboxamide] were at least 10 µM and 0.001 to 0.1 µM.
“2′-Chloro-N-(5-(6-chloro-3-methylpyrazine-2-carbonyl)-5,6-dihydro-4H-pyrrolo[3,4-d]thiazol-2-yl)-5′-methoxy-6-methyl-[4,4′-bipyridine]-3-carboxamide [Example 505]”: the half-maximal inhibitory concentration (IC50) in the test with DLD1 WT cells was 5 to 10 µM; in the test on DLD1 BRCA2 (−/−) cells it was 0.001 to 0.1 µM.
The like results for “2′-chloro-N-(5-(2-(difluoromethyl)pyrimidine-4-carbonyl)-5,6-dihydro-4H-pyrrolo[3,4-d]thiazol-2-yl)-5′-methoxy-6-methyl-[4,4′-bipyridine]-3-carboxamide [Example 641]” were, in that order, at least 10 µM and 0.001 to 0.1 µM.
Take `COc1cnc(Cl)cc1-c1cc(C)ncc1C(=O)Nc1nc2c(s1)CN(C(=O)c1ncc(C)c(C(F)(F)F)c1C)C2` [Example 1011, 2′-chloro-N-(5-(3,5-dimethyl-4-(trifluoromethyl)picolinoyl)-5,6-dihydro-4H-pyrrolo[3,4-d]thiazol-2-yl)-5′-methoxy-6-methyl-[4,4′-bipyridine]-3-carboxamide]: the IC50 in the test on DLD1 WT cells (Homo sapiens, DLD-1, 168 h) is at least 10 µM; with DLD1 BRCA2 (−/−) cells (Homo sapiens, DLD-1, 168 h), 0.001 to 0.1 µM.
Taken in the same sequence, the figures for `COc1ncc(C(F)(F)F)c(C(=O)N2Cc3nc(NC(=O)c4cnc(C)cc4-c4cc(Cl)ncc4OC)sc3C2)n1` [Example 994, 2′-chloro-5′-methoxy-N-(5-(2-methoxy-5-(trifluoromethyl)pyrimidine-4-carbonyl)-5,6-dihydro-4H-pyrrolo[3,4-d]thiazol-2-yl)-6-methyl-[4,4′-bipyridine]-3-carboxamide] were at least 10 µM and 0.001 to 0.1 µM.
In the case of `COc1cnc(Cl)cc1-c1cc(C)ncc1C(=O)Nc1nc2c(s1)CN(C(=O)c1ncc(C(F)(F)F)nc1OC)C2` [Example 945, 2′-chloro-5′-methoxy-N-(5-(3-methoxy-5-(trifluoromethyl)pyrazine-2-carbonyl)-5,6-dihydro-4H-pyrrolo[3,4-d]thiazol-2-yl)-6-methyl-[4,4′-bipyridine]-3-carboxamide], the IC50 was at least 10 µM in the test on DLD1 WT cells (Homo sapiens, DLD-1, 168 h) and 0.001 to 0.1 µM in the test with DLD1 BRCA2 (−/−) cells (Homo sapiens, DLD-1, 168 h).
Consider `COc1cnc(Cl)cc1-c1cc(C)ncc1C(=O)Nc1nc2c(s1)CN(C(=O)c1ncc(C(F)F)nc1OC)C2` [Example 972, 2′-chloro-N-(5-(5-(difluoromethyl)-3-methoxypyrazine-2-carbonyl)-5,6-dihydro-4H-pyrrolo[3,4-d]thiazol-2-yl)-5′-methoxy-6-methyl-[4,4′-bipyridine]-3-carboxamide], for which the IC50 in the test on DLD1 WT cells (Homo sapiens, DLD-1, 168 h) is at least 10 µM; in the test with DLD1 BRCA2 (−/−) cells (Homo sapiens, DLD-1, 168 h), 0.001 to 0.1 µM.
Taken in the same sequence, the figures for `COc1cnc(C(F)F)cc1-c1cc(C)ncc1C(=O)Nc1nc2c(s1)CN(C(=O)c1ccc(C(F)(F)F)nc1OC)C2` [Example 1016, 2′-(difluoromethyl)-5′-methoxy-N-(5-(2-methoxy-6-(trifluoromethyl)nicotinoyl)-5,6-dihydro-4H-pyrrolo[3,4-d]thiazol-2-yl)-6-methyl-[4,4′-bipyridine]-3-carboxamide] were at least 10 µM and 0.001 to 0.1 µM.
Consider `COc1cnc(Cl)cc1-c1cc(C)ncc1C(=O)Nc1nc2c(s1)CN(C(=O)c1cnc(C(F)(F)F)c(C)n1)C2`, for which the IC50 was in the range of 0.5 to 2 µM with DLD1 WT cells (Homo sapiens, DLD-1, 168 h) and 0.001 to 0.1 µM in the test with DLD1 BRCA2 (−/−) cells (Homo sapiens, DLD-1, 168 h).
The like results for `COc1nnc(C(F)F)cc1-c1cc(C)ncc1C(=O)Nc1nc2c(s1)CN(C(=O)c1nccc(C(F)(F)F)c1F)C2` [Example 1026, 4-(6-(difluoromethyl)-3-methoxypyridazin-4-yl)-N-(5-(3-fluoro-4-(trifluoromethyl)picolinoyl)-5,6-dihydro-4H-pyrrolo[3,4-d]thiazol-2-yl)-6-methylnicotinamide] were, in that order, at least 10 µM and 0.001 to 0.1 µM.
The like results for `COc1cnc(Cl)cc1-c1cc(C)ncc1C(=O)Nc1nc2c(s1)CN(C(=O)c1nc(C)c(Cl)nc1C)C2` [Example 622] were, in that order, at least 10 µM and 0.001 to 0.1 µM.
The like results for `COc1cnc(Cl)cc1-c1cc(C)ncc1C(=O)Nc1nc2c(s1)CN(C(=O)c1ccc(OC(F)(F)F)nc1OC)C2` [Example 1039, 2′-chloro-5′-methoxy-N-(5-(2-methoxy-6-(trifluoromethoxy)nicotinoyl)-5,6-dihydro-4H-pyrrolo[3,4-d]thiazol-2-yl)-6-methyl-[4,4′-bipyridine]-3-carboxamide] were, in that order, at least 10 µM and 0.001 to 0.1 µM.
On to `COc1cnc(Cl)cc1-c1cc(C)ncc1C(=O)Nc1nc2c(s1)CN(C(=O)c1nc(C)c(C(F)F)cc1Cl)C2`, for which the IC50 in the test on DLD1 WT cells (Homo sapiens, DLD-1, 168 h) was at least 10 µM; in the test with DLD1 BRCA2 (−/−) cells (Homo sapiens, DLD-1, 168 h) it was 0.001 to 0.1 µM.
Regarding “2′-chloro-N-(5-(6-chloro-5-fluoropicolinoyl)-5,6-dihydro-4H-pyrrolo[3,4-d]thiazol-2-yl)-5′-methoxy-6-methyl-[4,4′-bipyridine]-3-carboxamide [Example 388]”, the IC50 in the test with DLD1 WT cells lay within 2 to 5 µM; in the test on DLD1 BRCA2 (−/−) cells it was 0.001 to 0.1 µM.
For the compound `COc1cnc(Cl)cc1-c1cc(C)ncc1C(=O)Nc1nc2c(s1)CN(C(=O)c1ncc(C(F)F)nc1C)C2` (racemic), the IC50 with DLD1 WT cells (Homo sapiens, DLD-1, 168 h) is at least 10 µM; with DLD1 BRCA2 (−/−) cells (Homo sapiens, DLD-1, 168 h), 0.25 to 0.5 µM.
On to `COc1ccc(C(=O)N2Cc3nc(NC(=O)c4cnc(C)cc4-c4cc(Cl)ncc4OC)sc3C2)c(F)n1` [Example 1038, 2′-chloro-N-(5-(2-fluoro-6-methoxynicotinoyl)-5,6-dihydro-4H-pyrrolo[3,4-d]thiazol-2-yl)-5′-methoxy-6-methyl-[4,4′-bipyridine]-3-carboxamide], for which the IC50 is at least 10 µM in the test with DLD1 WT cells (Homo sapiens, DLD-1, 168 h) and 0.1 to 0.25 µM in the test on DLD1 BRCA2 (−/−) cells (Homo sapiens, DLD-1, 168 h).
Taken in the same sequence, the figures for `COc1cnc(Cl)cc1-c1cc(C)ncc1C(=O)Nc1nc2c(s1)CN(C(=O)[C@H]1CC[C@H](C(F)F)CC1)C2` [Example 908, 2′-chloro-N-(5-((1r,4r)-4-(difluoromethyl)cyclohexane-1-carbonyl)-5,6-dihydro-4H-pyrrolo[3,4-d]thiazol-2-yl)-5′-methoxy-6-methyl-[4,4′-bipyridine]-3-carboxamide] were at least 10 µM and 0.001 to 0.1 µM.
The like results for `COc1cnc(Cl)cc1-c1cc(C)ncc1C(=O)Nc1nc2c(s1)CN(C(=O)c1cnc(C(F)(F)F)cc1Cl)C2` [Example 973, 2′-chloro-N-(5-(4-chloro-6-(trifluoromethyl)nicotinoyl)-5,6-dihydro-4H-pyrrolo[3,4-d]thiazol-2-yl)-5′-methoxy-6-methyl-[4,4′-bipyridine]-3-carboxamide] were, in that order, at least 10 µM and 0.001 to 0.1 µM.
The like results for `COc1cnc(Cl)cc1-c1cc(C)ncc1C(=O)Nc1nc2c(s1)CN(C(=O)c1nc(C(F)(F)F)c(C)cc1C)C2` [Example 1012, 2′-chloro-N-(5-(3,5-dimethyl-6-(trifluoromethyl)picolinoyl)-5,6-dihydro-4H-pyrrolo[3,4-d]thiazol-2-yl)-5′-methoxy-6-methyl-[4,4′-bipyridine]-3-carboxamide] were, in that order, at least 10 µM and 0.001 to 0.1 µM.
For `COc1cnc(Cl)cc1-c1cc(C)ncc1C(=O)Nc1nc2c(s1)CN(C(=O)c1cc(C)c(C(F)(F)F)nc1C)C2`, the IC50 was at least 10 µM in the test with DLD1 WT cells (Homo sapiens, DLD-1, 168 h) and 0.001 to 0.1 µM in the test with DLD1 BRCA2 (−/−) cells (Homo sapiens, DLD-1, 168 h).
The like results for `COc1ncc(Cl)cc1-c1cc(C)ncc1C(=O)Nc1nc2c(s1)CN(C(=O)c1nc(OC)c(C(F)(F)F)cc1C)C2` [Example 1044, 5-chloro-2-methoxy-N-(5-(6-methoxy-3-methyl-5-(trifluoromethyl)picolinoyl)-5,6-dihydro-4H-pyrrolo[3,4-d]thiazol-2-yl)-6′-methyl-[3,4′-bipyridine]-3′-carboxamide] were, in that order, at least 10 µM and 0.001 to 0.1 µM.

A word on the IC50: it is the concentration needed to halve the response being measured.
